From paper PMC5666424, “Marine-Derived 2-Aminoimidazolone Alkaloids. Leucettamine B-Related Polyandrocarpamines Inhibit Mammalian and Protozoan DYRK & CLK Kinases” (Marine Drugs, 2017)

Key:
Assay in all cases: KinomeScan
Assay type in all cases: binding
Settings in all cases: 1 μM
[1] = target: T1, DMPK (Homo sapiens, UniProt Q09013)
T1 construct: purchased DiscoverX (KINOMEscan)

[2] = target: T2, VEGFR2 (Homo sapiens, UniProt P35968)
T2 construct: purchased DiscoverX (KINOMEscan)

[3] = target: T3, ABL1(F317I)-nonphosphorylated (Homo sapiens, UniProt P00519, F317I)
T3 construct: purchased DiscoverX (KINOMEscan)

[4] = target: T4, MEK5 (Homo sapiens, UniProt Q13163)
T4 construct: purchased DiscoverX (KINOMEscan)

[5] = target: T5, MYLK4 (Homo sapiens, UniProt Q86YV6)
T5 construct: purchased DiscoverX (KINOMEscan)

[6] = target: T6, GAK (Homo sapiens, UniProt O14976)
T6 construct: purchased DiscoverX (KINOMEscan)

[7] = target: T7, SRC (Homo sapiens, UniProt P12931)
T7 construct: purchased DiscoverX (KINOMEscan)

[8] = target: T8, LRRK2(G2019S) (Homo sapiens, UniProt Q5S007, G2019S)
T8 construct: purchased DiscoverX (KINOMEscan)

[9] = target: T9, TRPM6 (Homo sapiens, UniProt Q9BX84)
T9 construct: purchased DiscoverX (KINOMEscan)

[10] = target: T10, MYO3A (Homo sapiens, UniProt Q8NEV4)
T10 construct: purchased DiscoverX (KINOMEscan)

[11] = target: T11, HIPK1 (Homo sapiens, UniProt Q86Z02)
T11 construct: purchased DiscoverX (KINOMEscan)

[12] = target: T12, GRK7 (Homo sapiens, UniProt Q8WTQ7)
T12 construct: purchased DiscoverX (KINOMEscan)

[13] = target: T13, AXL (Homo sapiens, UniProt P30530)
T13 construct: purchased DiscoverX (KINOMEscan)

[14] = target: T14, SIK2 (Homo sapiens, UniProt Q9H0K1)
T14 construct: purchased DiscoverX (KINOMEscan)

[15] = target: T15, WEE1 (Homo sapiens, UniProt P30291)
T15 construct: purchased DiscoverX (KINOMEscan)

[16] = target: T16, HIPK4 (Homo sapiens, UniProt Q8NE63)
T16 construct: purchased DiscoverX (KINOMEscan)

[17] = target: T17, RPS6KA4 (Kin.Dom.2-C-terminal) (Homo sapiens, UniProt O75676)
T17 construct: Kin.Dom.2-C-terminal; purchased DiscoveRx (KinomeScan, San Diego, CA, USA)

[18] = target: T18, MET (Homo sapiens, UniProt P08581)
T18 construct: purchased DiscoverX (KINOMEscan)

[19] = target: T19, EGFR(T790M) (Homo sapiens, UniProt P00533, T790M)
T19 construct: purchased DiscoverX (KINOMEscan)

[20] = target: T20, MARK1 (Homo sapiens, UniProt Q9P0L2)
T20 construct: purchased DiscoverX (KINOMEscan)

[21] = target: T21, MKNK1 (Homo sapiens, UniProt Q9BUB5)
T21 construct: purchased DiscoverX (KINOMEscan)

[22] = target: T22, MYO3B (Homo sapiens, UniProt Q8WXR4)
T22 construct: purchased DiscoverX (KINOMEscan)

[23] = target: T23, DRAK1 (Homo sapiens, UniProt Q9UEE5)
T23 construct: purchased DiscoverX (KINOMEscan)

[24] = target: T24, NIM1 (Homo sapiens, UniProt Q8IY84)
T24 construct: purchased DiscoverX (KINOMEscan)

[25] = target: T25, KIT(V559D,T670I) (Homo sapiens, UniProt P10721, T670I/V559D)
T25 construct: purchased DiscoverX (KINOMEscan)

[26] = target: T26, CSK (Homo sapiens, UniProt P41240)
T26 construct: purchased DiscoverX (KINOMEscan)

[27] = target: T27, GSK3A (Homo sapiens, UniProt P49840)
T27 construct: purchased DiscoverX (KINOMEscan)

[28] = target: T28, TTK (Homo sapiens, UniProt P33981)
T28 construct: purchased DiscoverX (KINOMEscan)

[29] = target: T29, CAMK2D (Homo sapiens, UniProt Q13557)
T29 construct: purchased DiscoverX (KINOMEscan)

[30] = target: T30, TYK2(JH1domain-catalytic) (Homo sapiens, UniProt P29597)
T30 construct: TYK2(JH1domain-catalytic); purchased DiscoverX (KINOMEscan)

[31] = target: T31, OSR1 (Homo sapiens, UniProt O95747)
T31 construct: purchased DiscoverX (KINOMEscan)

[32] = target: T32, FGFR1 (Homo sapiens, UniProt P11362)
T32 construct: purchased DiscoverX (KINOMEscan)

[33] = target: T33, EGFR(E746-A750del) (Homo sapiens, UniProt P00533, DEL746-750)
T33 construct: purchased DiscoverX (KINOMEscan)

[34] = target: T34, KIT(V559D) (Homo sapiens, UniProt P10721, V559D)
T34 construct: purchased DiscoverX (KINOMEscan)

[35] = target: T35, FGFR3 (Homo sapiens, UniProt P22607)
T35 construct: purchased DiscoverX (KINOMEscan)

[36] = target: T36, CLK2 (Homo sapiens, UniProt P49760)
T36 construct: purchased DiscoverX (KINOMEscan)

T16 sequence (Q8NE63 whole entry): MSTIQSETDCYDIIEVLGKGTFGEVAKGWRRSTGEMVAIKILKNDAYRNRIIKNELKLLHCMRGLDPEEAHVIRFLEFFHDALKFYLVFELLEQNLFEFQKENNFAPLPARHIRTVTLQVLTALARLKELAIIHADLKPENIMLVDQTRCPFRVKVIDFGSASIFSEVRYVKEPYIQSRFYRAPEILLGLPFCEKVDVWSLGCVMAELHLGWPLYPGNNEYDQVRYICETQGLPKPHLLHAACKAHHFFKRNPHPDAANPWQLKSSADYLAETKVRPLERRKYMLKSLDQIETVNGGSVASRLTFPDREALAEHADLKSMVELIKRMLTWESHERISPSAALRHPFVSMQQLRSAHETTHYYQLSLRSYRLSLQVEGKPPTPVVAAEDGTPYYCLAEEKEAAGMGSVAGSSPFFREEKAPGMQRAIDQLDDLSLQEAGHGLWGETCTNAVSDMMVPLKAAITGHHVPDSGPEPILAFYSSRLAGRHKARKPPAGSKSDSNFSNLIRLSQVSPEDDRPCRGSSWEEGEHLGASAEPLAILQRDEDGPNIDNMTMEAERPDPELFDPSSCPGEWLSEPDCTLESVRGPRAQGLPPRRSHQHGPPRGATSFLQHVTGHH
T33 sequence (P00533 with tags, fused parts or gaps DEL746-750 limits assumed): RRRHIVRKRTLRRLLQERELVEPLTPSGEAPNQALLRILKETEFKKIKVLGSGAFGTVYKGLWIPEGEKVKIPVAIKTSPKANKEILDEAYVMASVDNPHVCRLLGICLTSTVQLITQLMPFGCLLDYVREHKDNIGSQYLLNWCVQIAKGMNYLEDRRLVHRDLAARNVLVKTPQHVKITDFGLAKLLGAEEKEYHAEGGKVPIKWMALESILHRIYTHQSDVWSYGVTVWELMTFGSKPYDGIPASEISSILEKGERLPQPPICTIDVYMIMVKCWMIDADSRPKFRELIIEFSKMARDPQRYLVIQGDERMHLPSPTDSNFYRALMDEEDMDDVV
T30 sequence (P29597 871-1187 limits assumed): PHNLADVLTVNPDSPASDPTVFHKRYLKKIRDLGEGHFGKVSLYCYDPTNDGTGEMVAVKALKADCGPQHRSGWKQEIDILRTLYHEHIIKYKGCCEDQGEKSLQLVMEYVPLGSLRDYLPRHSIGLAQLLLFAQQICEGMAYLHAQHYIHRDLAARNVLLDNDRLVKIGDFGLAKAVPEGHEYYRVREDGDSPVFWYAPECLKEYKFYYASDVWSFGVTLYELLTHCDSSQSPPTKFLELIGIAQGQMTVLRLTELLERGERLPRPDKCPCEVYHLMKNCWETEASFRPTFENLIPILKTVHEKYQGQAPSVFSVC
T18 sequence (P08581 25-1390): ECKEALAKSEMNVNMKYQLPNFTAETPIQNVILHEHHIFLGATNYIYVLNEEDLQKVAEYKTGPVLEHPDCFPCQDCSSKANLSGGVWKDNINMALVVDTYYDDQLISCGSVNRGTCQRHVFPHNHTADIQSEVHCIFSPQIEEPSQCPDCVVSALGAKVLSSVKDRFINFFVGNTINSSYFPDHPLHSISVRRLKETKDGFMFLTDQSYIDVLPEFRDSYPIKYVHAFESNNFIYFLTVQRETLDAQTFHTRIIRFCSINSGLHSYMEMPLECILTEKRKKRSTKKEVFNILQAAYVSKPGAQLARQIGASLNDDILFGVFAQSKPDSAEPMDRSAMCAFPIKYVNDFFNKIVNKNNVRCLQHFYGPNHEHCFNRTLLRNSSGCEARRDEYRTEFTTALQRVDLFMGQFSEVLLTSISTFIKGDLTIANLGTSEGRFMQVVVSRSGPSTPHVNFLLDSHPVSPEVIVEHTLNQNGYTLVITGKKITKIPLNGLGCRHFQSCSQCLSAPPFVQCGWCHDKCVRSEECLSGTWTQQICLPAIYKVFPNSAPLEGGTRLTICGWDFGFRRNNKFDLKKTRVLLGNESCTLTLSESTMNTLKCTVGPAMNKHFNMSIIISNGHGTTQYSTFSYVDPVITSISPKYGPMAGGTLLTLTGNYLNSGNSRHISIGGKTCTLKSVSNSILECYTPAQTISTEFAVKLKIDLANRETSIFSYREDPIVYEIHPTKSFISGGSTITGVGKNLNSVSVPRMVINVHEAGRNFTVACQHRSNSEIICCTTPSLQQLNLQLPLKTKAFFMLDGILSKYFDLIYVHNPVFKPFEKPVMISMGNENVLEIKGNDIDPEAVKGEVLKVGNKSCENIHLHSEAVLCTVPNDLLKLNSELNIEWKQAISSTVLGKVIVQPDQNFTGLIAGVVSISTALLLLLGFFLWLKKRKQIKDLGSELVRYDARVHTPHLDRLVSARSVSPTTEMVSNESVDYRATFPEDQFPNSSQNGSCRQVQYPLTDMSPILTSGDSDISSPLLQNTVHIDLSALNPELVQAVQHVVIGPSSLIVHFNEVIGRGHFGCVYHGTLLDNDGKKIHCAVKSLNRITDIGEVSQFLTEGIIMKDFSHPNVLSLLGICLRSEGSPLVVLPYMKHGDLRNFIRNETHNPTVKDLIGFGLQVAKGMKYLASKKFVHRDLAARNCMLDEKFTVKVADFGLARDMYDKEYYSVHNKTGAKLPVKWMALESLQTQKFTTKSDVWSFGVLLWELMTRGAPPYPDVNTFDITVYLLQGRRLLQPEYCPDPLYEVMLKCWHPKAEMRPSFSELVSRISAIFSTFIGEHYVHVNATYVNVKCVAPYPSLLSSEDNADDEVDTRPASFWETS
T32 sequence (P11362 22-822): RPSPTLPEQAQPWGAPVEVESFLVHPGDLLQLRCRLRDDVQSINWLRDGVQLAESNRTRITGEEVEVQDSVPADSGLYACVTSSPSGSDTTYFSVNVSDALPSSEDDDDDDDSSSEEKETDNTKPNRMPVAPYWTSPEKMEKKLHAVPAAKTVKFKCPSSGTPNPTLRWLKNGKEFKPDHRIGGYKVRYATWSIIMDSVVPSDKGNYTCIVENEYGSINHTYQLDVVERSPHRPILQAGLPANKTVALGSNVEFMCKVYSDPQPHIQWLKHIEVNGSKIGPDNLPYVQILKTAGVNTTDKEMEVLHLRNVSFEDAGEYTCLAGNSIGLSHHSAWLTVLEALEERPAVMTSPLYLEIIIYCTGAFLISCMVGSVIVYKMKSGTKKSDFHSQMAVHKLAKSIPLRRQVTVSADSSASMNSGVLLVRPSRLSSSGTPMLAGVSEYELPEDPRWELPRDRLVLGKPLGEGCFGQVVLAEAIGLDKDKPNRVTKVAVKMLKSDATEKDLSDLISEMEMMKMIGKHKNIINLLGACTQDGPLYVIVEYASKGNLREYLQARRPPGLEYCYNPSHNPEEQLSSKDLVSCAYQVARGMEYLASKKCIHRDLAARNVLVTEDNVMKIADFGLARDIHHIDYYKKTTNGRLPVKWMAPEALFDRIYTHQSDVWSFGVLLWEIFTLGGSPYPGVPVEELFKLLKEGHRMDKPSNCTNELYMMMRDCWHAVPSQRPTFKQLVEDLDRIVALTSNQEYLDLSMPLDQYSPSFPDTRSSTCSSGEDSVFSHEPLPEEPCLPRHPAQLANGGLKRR
T34 sequence (P10721 26-976 V559D): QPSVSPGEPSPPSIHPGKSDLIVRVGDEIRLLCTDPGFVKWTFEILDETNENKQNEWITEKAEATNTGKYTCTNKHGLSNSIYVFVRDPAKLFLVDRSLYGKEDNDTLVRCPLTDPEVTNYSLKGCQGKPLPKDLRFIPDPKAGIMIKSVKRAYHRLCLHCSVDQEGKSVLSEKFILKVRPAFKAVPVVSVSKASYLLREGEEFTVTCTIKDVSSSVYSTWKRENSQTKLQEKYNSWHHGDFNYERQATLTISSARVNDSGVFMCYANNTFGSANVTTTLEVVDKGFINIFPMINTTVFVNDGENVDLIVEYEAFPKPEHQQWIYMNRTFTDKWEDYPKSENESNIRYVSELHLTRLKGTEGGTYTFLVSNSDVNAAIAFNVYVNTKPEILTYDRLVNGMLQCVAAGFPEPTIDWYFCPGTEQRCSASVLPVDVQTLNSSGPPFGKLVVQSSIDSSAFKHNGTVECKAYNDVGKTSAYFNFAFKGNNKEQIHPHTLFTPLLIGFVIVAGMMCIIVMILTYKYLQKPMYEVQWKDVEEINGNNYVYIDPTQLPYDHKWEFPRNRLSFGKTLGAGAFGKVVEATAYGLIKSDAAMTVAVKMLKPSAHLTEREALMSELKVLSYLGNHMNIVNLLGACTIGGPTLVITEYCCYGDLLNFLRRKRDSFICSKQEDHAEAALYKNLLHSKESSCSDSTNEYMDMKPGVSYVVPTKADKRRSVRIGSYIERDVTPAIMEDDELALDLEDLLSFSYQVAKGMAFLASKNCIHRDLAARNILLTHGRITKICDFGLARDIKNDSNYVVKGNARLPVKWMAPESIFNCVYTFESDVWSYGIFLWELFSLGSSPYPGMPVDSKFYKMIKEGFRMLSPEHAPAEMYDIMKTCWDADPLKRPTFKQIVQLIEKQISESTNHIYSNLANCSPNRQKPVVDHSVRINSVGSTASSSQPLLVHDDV
T12 sequence (Q8WTQ7 whole entry): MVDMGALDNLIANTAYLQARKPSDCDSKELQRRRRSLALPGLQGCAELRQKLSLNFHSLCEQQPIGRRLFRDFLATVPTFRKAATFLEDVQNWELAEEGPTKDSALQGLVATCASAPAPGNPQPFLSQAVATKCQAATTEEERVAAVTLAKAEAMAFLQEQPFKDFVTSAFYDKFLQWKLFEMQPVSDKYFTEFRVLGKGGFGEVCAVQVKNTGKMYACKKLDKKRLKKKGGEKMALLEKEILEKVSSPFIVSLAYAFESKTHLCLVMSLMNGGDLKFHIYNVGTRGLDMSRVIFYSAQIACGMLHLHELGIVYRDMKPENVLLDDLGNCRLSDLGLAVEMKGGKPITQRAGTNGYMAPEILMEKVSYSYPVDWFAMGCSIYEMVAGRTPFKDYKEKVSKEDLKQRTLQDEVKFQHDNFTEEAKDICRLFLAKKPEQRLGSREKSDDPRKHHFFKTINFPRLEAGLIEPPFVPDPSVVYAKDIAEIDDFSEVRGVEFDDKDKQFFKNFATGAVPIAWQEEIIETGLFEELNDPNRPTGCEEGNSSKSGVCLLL
T25 sequence (P10721 26-976 V559D/T670I): as the sequence (P10721 26-976 V559D) above, with T645I counted along it

## COc1cc(/C=C2\N=C(N)NC2=O)ccc1O [Polyandrocarpamine A]
[1]
  Score: 100
[2]
  Score: 100
[3]
  Score: 92
[4]
  Score: 78
[5]
  Score: 96
[6]
  Score: 100
[7]
  Score: 100
[8]
  Score: 100
[9]
  Score: 100
[10]
  Score: 100
[11]
  Score: 52
[12]
  Score: 100
[13]
  Score: 100
[14]
  Score: 94
[15]
  Score: 100
[16]
  Score: 85
[17]
  Score: 22
[18]
  Score: 100
[19]
  Score: 93
[20]
  Score: 100
[21]
  Score: 63
[22]
  Score: 88
[23]
  Score: 42
[24]
  Score: 100
[25]
  Score: 85
[26]
  Score: 100
[27]
  Score: 100
[28]
  Score: 100
[29]
  Score: 100
[30]
  Score: 100
[31]
  Score: 100
[32]
  Score: 100
[33]
  Score: 100
[34]
  Score: 91
[35]
  Score: 100
[36]
  Score: 45
